In the NIST ThermoML archive (doi:10.1021/acs.jced.8b00589):
Numbers after ± are expanded uncertainties.

Test: xn = mol fraction of the nth substance listed
Conditions: for surface tension liquid-gas: Ring tensiometer; for viscosity / speed of sound / mass density: 100 kPa, Liquid; for viscosity: Capillary tube (Ostwald / Ubbelohde) method; for speed of sound: Frequency=2 MHz, Linear variable-path acoustic interferometer; for mass density: Vibrating tube method

CCC(C)(C)OC [2-methoxy-2-methylbutane] + CCCCCC
Conditions | mass density [kg/m3] | speed of sound [m/s] | surface tension liquid-gas [mN/m] | viscosity [mPa·s]
298.15 K, x1 = 0.1632 | 672.8 ± 1 | 1077.8 ± 10 | 17.99 ± 0.85 | 0.311 ± 0.03
298.15 K, x1 = 0.2584 | 683.2 ± 1 | 1082.2 ± 10 | 18.21 ± 0.85 | 0.318 ± 0.03
298.15 K, x1 = 0.3742 | 695.5 ± 1 | 1087.5 ± 10 | 18.5 ± 0.85 | 0.327 ± 0.03
298.15 K, x1 = 0.4276 | 701.6 ± 1 | 1088.6 ± 10 | 18.62 ± 0.85 | 0.331 ± 0.03
298.15 K, x1 = 0.5464 | 714.8 ± 1 | 1092.8 ± 10 | 18.73 ± 0.85 | 0.346 ± 0.03
298.15 K, x1 = 0.6121 | 722.3 ± 1 | 1096.1 ± 10 | 18.88 ± 0.85 | 0.356 ± 0.03
298.15 K, x1 = 0.7457 | 737.2 ± 1 | 1103.5 ± 10 | 19.15 ± 0.85 | 0.381 ± 0.03
298.15 K, x1 = 0.8625 | 750.1 ± 1 | 1112.2 ± 10 | 19.42 ± 0.85 | 0.402 ± 0.03
298.15 K, x1 = 1 | 765.6 ± 1 | 1118 ± 10 | 19.72 ± 0.85 | 0.424 ± 0.03
308.15 K, x1 = 0.1632 | 663.2 ± 1 | 1035.5 ± 10 | 16.88 ± 0.84 | 0.274 ± 0.03
308.15 K, x1 = 0.2584 | 673.8 ± 1 | 1039.4 ± 10 | 17.1 ± 0.84 | 0.281 ± 0.03
308.15 K, x1 = 0.3742 | 686.5 ± 1 | 1045.1 ± 10 | 17.4 ± 0.84 | 0.293 ± 0.03
308.15 K, x1 = 0.4276 | 692.3 ± 1 | 1046.8 ± 10 | 17.52 ± 0.84 | 0.298 ± 0.03
308.15 K, x1 = 0.5464 | 705.2 ± 1 | 1049.6 ± 10 | 17.64 ± 0.85 | 0.313 ± 0.03
308.15 K, x1 = 0.6121 | 712.5 ± 1 | 1053.2 ± 10 | 17.79 ± 0.85 | 0.322 ± 0.03
308.15 K, x1 = 0.7457 | 727.4 ± 1 | 1060.4 ± 10 | 18.07 ± 0.85 | 0.342 ± 0.03
308.15 K, x1 = 0.8625 | 740.7 ± 1 | 1069.2 ± 10 | 18.35 ± 0.85 | 0.362 ± 0.03
308.15 K, x1 = 1 | 756.3 ± 1 | 1075.6 ± 10 | 18.66 ± 0.85 | 0.39 ± 0.03
318.15 K, x1 = 0.1632 | 653.5 ± 1 | 984.7 ± 10 | 15.78 ± 0.84 | 0.249 ± 0.03
318.15 K, x1 = 0.2584 | 663.8 ± 1 | 988.75 ± 10 | 16.01 ± 0.84 | 0.256 ± 0.03
318.15 K, x1 = 0.3742 | 676.6 ± 1 | 994.36 ± 10 | 16.33 ± 0.84 | 0.266 ± 0.03
318.15 K, x1 = 0.4276 | 682.4 ± 1 | 996.61 ± 10 | 16.46 ± 0.84 | 0.271 ± 0.03
318.15 K, x1 = 0.5464 | 695.3 ± 1 | 1002.4 ± 10 | 16.58 ± 0.84 | 0.284 ± 0.03
318.15 K, x1 = 0.6121 | 702.5 ± 1 | 1006.8 ± 10 | 16.74 ± 0.84 | 0.292 ± 0.03
318.15 K, x1 = 0.7457 | 717.7 ± 1 | 1013.8 ± 10 | 17.03 ± 0.84 | 0.311 ± 0.03
318.15 K, x1 = 0.8625 | 730.6 ± 1 | 1022.8 ± 10 | 17.32 ± 0.84 | 0.331 ± 0.03
318.15 K, x1 = 1 | 746.3 ± 1 | 1030.2 ± 10 | 17.65 ± 0.85 | 0.357 ± 0.03
323.15 K, x1 = 0.1632 | 648.6 ± 1 | 963.82 ± 10 | 15.22 ± 0.84 | 0.239 ± 0.03
323.15 K, x1 = 0.2584 | 658.8 ± 1 | 967.24 ± 10 | 15.47 ± 0.84 | 0.245 ± 0.03
323.15 K, x1 = 0.3742 | 671.5 ± 1 | 971.83 ± 10 | 15.78 ± 0.84 | 0.254 ± 0.03
323.15 K, x1 = 0.4276 | 677.3 ± 1 | 973.34 ± 10 | 15.92 ± 0.84 | 0.258 ± 0.03
323.15 K, x1 = 0.5464 | 690.4 ± 1 | 977.27 ± 10 | 16.04 ± 0.84 | 0.27 ± 0.03
323.15 K, x1 = 0.6121 | 697.6 ± 1 | 980.49 ± 10 | 16.2 ± 0.84 | 0.277 ± 0.03
323.15 K, x1 = 0.7457 | 712.5 ± 1 | 984.8 ± 10 | 16.5 ± 0.84 | 0.294 ± 0.03
323.15 K, x1 = 0.8625 | 725.8 ± 1 | 994.84 ± 10 | 16.8 ± 0.84 | 0.312 ± 0.03
323.15 K, x1 = 1 | 741.4 ± 1 | 1003 ± 10 | 17.13 ± 0.84 | 0.335 ± 0.03
328.15 K, x1 = 0.1632 | 643.6 ± 1 | 942.3 ± 10 | 14.67 ± 0.83 | 0.23 ± 0.03
328.15 K, x1 = 0.2584 | 653.7 ± 1 | 945.14 ± 10 | 14.92 ± 0.84 | 0.235 ± 0.03
328.15 K, x1 = 0.3742 | 666.5 ± 1 | 949.52 ± 10 | 15.24 ± 0.84 | 0.244 ± 0.03
328.15 K, x1 = 0.4276 | 672.3 ± 1 | 951.24 ± 10 | 15.38 ± 0.84 | 0.248 ± 0.03
328.15 K, x1 = 0.5464 | 685.3 ± 1 | 955.05 ± 10 | 15.5 ± 0.84 | 0.259 ± 0.03
328.15 K, x1 = 0.6121 | 692.6 ± 1 | 958.72 ± 10 | 15.67 ± 0.84 | 0.266 ± 0.03
328.15 K, x1 = 0.7457 | 707.5 ± 1 | 963.63 ± 10 | 15.97 ± 0.84 | 0.283 ± 0.03
328.15 K, x1 = 0.8625 | 720.8 ± 1 | 974.08 ± 10 | 16.27 ± 0.84 | 0.301 ± 0.03
328.15 K, x1 = 1 | 736.5 ± 1 | 985.22 ± 10 | 16.62 ± 0.84 | 0.323 ± 0.03
